Data: patent US11807693B2 (priority 2014, dated 2023)
Starred links: 1 amine or outer side, 2 acyl side, 3 side chain; linkers in the order of their positions; H or OH if unused. Non-standard residues stand in square brackets, D forms with d. Residues, ends and D or L forms follow the SMILES beside them. *: point of attachment. Oic = O=C(O)[C@@H]1C[C@@H]2CCCC[C@@H]2N1; Phe(4-Cl) = N[C@@H](Cc1ccc(Cl)cc1)C(=O)O; Phe(4-F) = N[C@@H](Cc1ccc(F)cc1)C(=O)O; γGlu = O=C(O)[C@H](CCC(=O)[*:2])N[*:1]; d(β3hF) = N[C@@H](CC(=O)O)Cc1ccccc1; NMeR = CN[C@@H](CCCNC(=N)N)C(=O)O; Palmitoyl = CCCCCCCCCCCCCCCC(=O)*; αMeF = C[C@](N)(Cc1ccccc1)C(=O)O; 3Pal = N[C@@H](Cc1cccnc1)C(=O)O; Cha = N[C@@H](CC1CCCCC1)C(=O)O; αMeL = CC(C)C[C@](C)(N)C(=O)O; αMeOrn = C[C@](N)(CCCN)C(=O)O; β3hP = O=C(O)C[C@@H]1CCCN1; Pip = O=C(O)[C@@H]1CCCCN1; Nle = CCCC[C@H](N)C(=O)O; Orn = NCCC[C@H](N)C(=O)O; AEEA = NCCOCCOCC(=O)O; Aib = CC(C)(N)C(=O)O; NPrGly = CCCNCC(=O)O

Target: T1, human APJ receptor (Homo sapiens, UniProt P35414)
T1 construct: expressed in transfected cells
T1 sequence (P35414 1-380): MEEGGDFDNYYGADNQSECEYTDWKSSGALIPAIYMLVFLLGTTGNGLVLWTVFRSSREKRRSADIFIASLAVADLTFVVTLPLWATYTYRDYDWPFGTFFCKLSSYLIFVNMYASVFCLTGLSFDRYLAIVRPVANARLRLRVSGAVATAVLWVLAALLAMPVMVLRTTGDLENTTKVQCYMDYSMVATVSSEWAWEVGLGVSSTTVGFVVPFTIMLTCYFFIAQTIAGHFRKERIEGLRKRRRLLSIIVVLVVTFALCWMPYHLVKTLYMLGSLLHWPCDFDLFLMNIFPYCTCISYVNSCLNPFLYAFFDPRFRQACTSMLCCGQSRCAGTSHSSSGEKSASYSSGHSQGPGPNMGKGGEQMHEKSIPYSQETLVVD
Test: [35S] GTPγS assay, human APJ receptor
Format: biochemical
Conditions: human APJ receptor
Experimental: The membranes were incubated with modified peptides in the assay buffer. […] Bound [^35S] GTPγS was separated from free radiolabel by filtration. The filter bound radioactivity was determined by liquid scintillation counting.

Row | EC50 [nM] | Compound
1 | 0.165 | CCCCCCCCCCCCCCCC(=O)N[C@@H](CCC(=O)NCCOCCOCC(=O)NCCOCCOCC(=O)N[C@H](CCC(N)=O)C(=O)N[C@@H](CCCNC(=N)N)C(=O)N1CCC[C@H]1C(=O)N(C)[C@@H](CCCNC(=N)N)C(=O)N[C@@](C)(CC(C)C)C(=O)N[C@@H](CO)C(=O)N[C@@H](Cc1c[nH]cn1)C(=O)N[C@@H](CCCN)C(=O)NCC(=O)N1[C@H](C(=O)N[C@@H](CCCC)C(=O)N2CCC[C@H]2CC(=O)N[C@@H](Cc2ccc(Cl)cc2)C(=O)O)C[C@@H]2CCCC[C@@H]21)C(=O)O [compound 634] ({Palmitoyl-γGlu-AEEA-AEEA}-[dQ]RP[NMeR][αMeL]SH[Orn]G[Oic][Nle][β3hP][Phe(4-Cl)]-OH)
2 | 1.62 | CCCCCCCCCCCCCCCC(=O)N[C@@H](CCC(=O)NCCOCCOCC(=O)NCCOCCOCC(=O)N[C@H](CCC(N)=O)C(=O)N[C@@H](CCCNC(=N)N)C(=O)N1CCC[C@H]1C(=O)N(C)[C@@H](CCCNC(=N)N)C(=O)N[C@@](C)(CC(C)C)C(=O)N[C@@H](CO)C(=O)N[C@@H](Cc1c[nH]cn1)C(=O)N[C@@](C)(CCCN)C(=O)NCC(=O)N1[C@H](C(=O)N[C@@H](CCCC)C(=O)N2CCC[C@H]2CC(=O)N[C@@H](Cc2ccc(Cl)cc2)C(=O)O)C[C@@H]2CCCC[C@@H]21)C(=O)O [compound 635] ({Palmitoyl-γGlu-AEEA-AEEA}-[dQ]RP[NMeR][αMeL]SH[αMeOrn]G[Oic][Nle][β3hP][Phe(4-Cl)]-OH)

The next lines start with the compound.

Row | Compound | EC50 [nM]
3 | CCCCCCCCCCCCCCCC(=O)N[C@@H](CCC(=O)NCCOCCOCC(=O)NCCOCCOCC(=O)N[C@H](CCC(N)=O)C(=O)N[C@@H](CCCNC(=N)N)C(=O)N1CCC[C@H]1C(=O)N(C)[C@@H](CCCNC(=N)N)C(=O)N[C@@H](CC1CCCCC1)C(=O)N[C@@H](CO)C(=O)N[C@@H](Cc1c[nH]cn1)C(=O)N[C@@H](CCCCN)C(=O)NCC(=O)N1[C@H](C(=O)N[C@@H](CCCC)C(=O)N2CCCC[C@H]2C(=O)N[C@@](C)(Cc2ccccc2)C(=O)O)C[C@@H]2CCCC[C@@H]21)C(=O)O [compound 609] ({Palmitoyl-γGlu-AEEA-AEEA}-[dQ]RP[NMeR][Cha]SHKG[Oic][Nle][Pip][αMeF]-OH) | 1.25
4 | CCCCCCCCCCCCCCCC(=O)N[C@@H](CCC(=O)NCCOCCOCC(=O)NCCOCCOCC(=O)N[C@H](CCC(N)=O)C(=O)N[C@@H](CCCNC(=N)N)C(=O)N1CCC[C@H]1C(=O)N(C)[C@@H](CCCNC(=N)N)C(=O)N[C@@H](CC1CCCCC1)C(=O)N[C@@H](CO)C(=O)N[C@@H](Cc1c[nH]cn1)C(=O)N[C@@H](CCCCN)C(=O)NCC(=O)N1CCC[C@H]1CC(=O)N[C@@H](CCCC)C(=O)N[C@@H](Cc1ccc(Cl)cc1)C(=O)O)C(=O)O [compound 613] ({Palmitoyl-γGlu-AEEA-AEEA}-[dQ]RP[NMeR][Cha]SHKG[β3hP][Nle][Phe(4-Cl)]-OH) | 1.66
5 | CCCCCCCCCCCCCCCC(=O)N[C@@H](CCC(=O)NCCOCCOCC(=O)NCCOCCOCC(=O)N[C@H](CCC(N)=O)C(=O)N[C@@H](CCCNC(=N)N)C(=O)N1CCC[C@H]1C(=O)N(C)[C@@H](CCCNC(=N)N)C(=O)N[C@@H](CC1CCCCC1)C(=O)N[C@@H](CO)C(=O)N[C@@H](Cc1c[nH]cn1)C(=O)N[C@@H](Cc1ccc(F)cc1)C(=O)NCC(=O)N1[C@H](C(=O)N[C@@H](CCCC)C(=O)N2CCC[C@H]2CC(=O)N[C@@H](CC(=O)O)Cc2ccccc2)C[C@@H]2CCCC[C@@H]21)C(=O)O [compound 622] ({Palmitoyl-γGlu-AEEA-AEEA}-[dQ]RP[NMeR][Cha]SH[Phe(4-F)]G[Oic][Nle][β3hP][d(β3hF)]-OH) | 11.8
6 | CCCCCCCCCCCCCCCC(=O)N[C@@H](CCC(=O)NCCOCCOCC(=O)NCCOCCOCC(=O)N[C@H](CCC(N)=O)C(=O)N[C@@H](CCCNC(=N)N)C(=O)N1CCC[C@H]1C(=O)N(C)[C@@H](CCCNC(=N)N)C(=O)N[C@@](C)(CC(C)C)C(=O)N[C@@H](CO)C(=O)N[C@@H](Cc1c[nH]cn1)C(=O)N[C@@H](Cc1cccnc1)C(=O)NCC(=O)N1[C@H](C(=O)N[C@@H](CCCC)C(=O)N2CCC[C@H]2CC(=O)N[C@@H](Cc2ccc(Cl)cc2)C(=O)O)C[C@@H]2CCCC[C@@H]21)C(=O)O [compound 636] ({Palmitoyl-γGlu-AEEA-AEEA}-[dQ]RP[NMeR][αMeL]SH[3Pal]G[Oic][Nle][β3hP][Phe(4-Cl)]-OH) | 1.59
7 | CCCCCCCCCCCCCCCC(=O)N[C@@H](CCC(=O)NCCOCCOCC(=O)NCCOCCOCC(=O)N[C@H](CCC(N)=O)C(=O)N[C@@H](CCCNC(=N)N)C(=O)N1CCC[C@H]1C(=O)N(C)[C@@H](CCCNC(=N)N)C(=O)N[C@@H](CC1CCCCC1)C(=O)N[C@@H](CO)C(=O)N(CCC)CC(=O)N[C@@H](CCCCN)C(=O)NCC(=O)N1CCCC[C@H]1C(=O)N[C@@H](CCCC)C(=O)NC(C)(C)C(=O)N[C@@H](Cc1ccc(Cl)cc1)C(=O)O)C(=O)O [compound 644] ({Palmitoyl-γGlu-AEEA-AEEA}-[dQ]RP[NMeR][Cha]S[NPrGly]KG[Pip][Nle][Aib][Phe(4-Cl)]-OH) | 1.4
